According to ChEMBL document CHEMBL3885861, “Open TG-GATES”:

Species on record: Rattus norvegicus
Experiment: Open TG-GATES - Regimen: Daily Repeat
Format: toxicity, organism-based, Sprague-Dawley
Parameters: regimen Daily Repeat, gender Male, age 6 weeks
Settings: in vivo, po, 100 mg/kg, route gavage, dose level Low; for APTT / Bas / Eos / Fbg / Hb / Ht / Lym / MCH / MCHC / MCV / Mono / Neu / PT / Plat / RBC / Ret / WBC: tissue Blood; for KIDNEY_L / KIDNEY_R / KIDNEY_TOTAL: tissue Kidney; for LIVER: tissue Liver; for A/G / ALP / ALT / AST / BUN / CRE / Ca / Cl / DBIL / GLC / IP / K / LDH / Na / PL / RALB / TBIL / TC / TG / TP / gamma-GTP: tissue Plasma

C[C@H]1O[C@H](O[C@H]2[C@H](O)[C@@H](O)[C@@H](O[C@H]3[C@H](O)[C@@H](O)C(O)O[C@@H]3CO)O[C@@H]2CO)[C@H](O)[C@@H](O)[C@@H]1N[C@H]1C=C(CO)[C@@H](O)[C@H](O)[C@H]1O (some centres not stated) [ACARBOSE] gave a TERMINAL_BW (72 h, time 3 day) of 233.2 g, an APTT (72 h, time 3 day) of 17.1 s and a Bas (72 h, time 3 day) of 0%. It also gave an Eos (72 h, time 3 day) of 1%, a Fbg (72 h, time 3 day) of 279.2 mg/dL and a Hb (72 h, time 3 day) of 13.2 g/dL. It also gave a Ht (72 h, time 3 day) of 39.4%, a Lym (72 h, time 3 day) of 79.4% and an MCH (72 h, time 3 day) of 20.4 pg. It also gave an MCHC (72 h, time 3 day) of 33.5%, an MCV (72 h, time 3 day) of 61 fL and a Mono (72 h, time 3 day) of 2.6%. The Neu (72 h, time 3 day) was 15.4%, the PT (72 h, time 3 day) was 13.3 s and the Plat (72 h, time 3 day) was 126 x10_4/uL. For the same compound, the RBC (72 h, time 3 day) was 646.8 x10_4/ul, the Ret (72 h, time 3 day) was 6.7% and the WBC (72 h, time 3 day) was 97.6 x10_2/uL. The KIDNEY_L (72 h, time 3 day) was 1 g, the KIDNEY_R (72 h, time 3 day) was 1 g and the KIDNEY_TOTAL (72 h, time 3 day) was 2.1 g. For the same compound, the LIVER (72 h, time 3 day) was 11.3 g, the A/G (72 h, time 3 day) was 0.9 and the ALP (72 h, time 3 day) was 1544.2 IU/L. It also gave an ALT (72 h, time 3 day) of 40.2 IU/L, an AST (72 h, time 3 day) of 70.2 IU/L and a BUN (72 h, time 3 day) of 13.8 mg/dL. For the same compound, the CRE (72 h, time 3 day) was 0.2 mg/dL, the Ca (72 h, time 3 day) was 10.7 mg/dL and the Cl (72 h, time 3 day) was 103.8 meq/L. It also gave a DBIL (72 h, time 3 day) of 0.01 mg/dL, a GLC (72 h, time 3 day) of 182 mg/dL and an IP (72 h, time 3 day) of 7.5 mg/dL. It also gave a K (72 h, time 3 day) of 3.9 meq/L, an LDH (72 h, time 3 day) of 84.2 IU/L and a Na (72 h, time 3 day) of 140.6 meq/L. The PL (72 h, time 3 day) was 142.4 mg/dL, the RALB (72 h, time 3 day) was 2.6 g/dL and the TBIL (72 h, time 3 day) was 0.056 mg/dL. For the same compound, the TC (72 h, time 3 day) was 72.2 mg/dL, the TG (72 h, time 3 day) was 101.8 mg/dL and the TP (72 h, time 3 day) was 5.6 g/dL. The gamma-GTP (72 h, time 3 day) was 1 IU/L, the TERMINAL_BW ([…], time 7 day) was 267.4 g and the TERMINAL_BW ([…], time 14 day) was 335.4 g. For the same compound, the TERMINAL_BW ([…], time 28 day) was 407.8 g, the APTT ([…], time 7 day) was 17.6 s and the Bas ([…], time 7 day) was 0%. For the same compound, the Eos ([…], time 7 day) was 1%, the Fbg ([…], time 7 day) was 291.8 mg/dL and the Hb ([…], time 7 day) was 13.8 g/dL. For the same compound, the Ht ([…], time 7 day) was 40.9%, the Lym ([…], time 7 day) was 73.6% and the MCH ([…], time 7 day) was 21.2 pg. The MCHC ([…], time 7 day) was 33.6%, the MCV ([…], time 7 day) was 63 fL and the Mono ([…], time 7 day) was 3%. For the same compound, the Neu ([…], time 7 day) was 21.6%, the PT ([…], time 7 day) was 12.9 s and the Plat ([…], time 7 day) was 130.6 x10_4/uL. It also gave an RBC ([…], time 7 day) of 649.8 x10_4/ul, a Ret ([…], time 7 day) of 6.1% and a WBC ([…], time 7 day) of 81.1 x10_2/uL. For the same compound, the APTT ([…], time 14 day) was 17.6 s, the Bas ([…], time 14 day) was 0% and the Eos ([…], time 14 day) was 1.4%. For the same compound, the Fbg ([…], time 14 day) was 290.2 mg/dL, the Hb ([…], time 14 day) was 14.9 g/dL and the Ht ([…], time 14 day) was 44.1%. The Lym ([…], time 14 day) was 80.6%, the MCH ([…], time 14 day) was 20.7 pg and the MCHC ([…], time 14 day) was 33.7%. The MCV ([…], time 14 day) was 61.4 fL, the Mono ([…], time 14 day) was 2.6% and the Neu ([…], time 14 day) was 15%. For the same compound, the PT ([…], time 14 day) was 13.2 s, the Plat ([…], time 14 day) was 126.6 x10_4/uL and the RBC ([…], time 14 day) was 719.2 x10_4/ul. For the same compound, the Ret ([…], time 14 day) was 4.4%, the WBC ([…], time 14 day) was 98.7 x10_2/uL and the APTT ([…], time 28 day) was 18.7 s. It also gave a Bas ([…], time 28 day) of 0%, an Eos ([…], time 28 day) of 1% and a Fbg ([…], time 28 day) of 301 mg/dL. It also gave a Hb ([…], time 28 day) of 15.3 g/dL, a Ht ([…], time 28 day) of 44% and a Lym ([…], time 28 day) of 78.8%. For the same compound, the MCH ([…], time 28 day) was 19.6 pg, the MCHC ([…], time 28 day) was 34.7% and the MCV ([…], time 28 day) was 56.4 fL. It also gave a Mono ([…], time 28 day) of 1.4%, a Neu ([…], time 28 day) of 17.4% and a PT ([…], time 28 day) of 13.3 s. For the same compound, the Plat ([…], time 28 day) was 103.6 x10_4/uL, the RBC ([…], time 28 day) was 780.8 x10_4/ul and the Ret ([…], time 28 day) was 2.4%. The WBC ([…], time 28 day) was 101.5 x10_2/uL, the KIDNEY_L ([…], time 7 day) was 1.1 g and the KIDNEY_R ([…], time 7 day) was 1.1 g. For the same compound, the KIDNEY_TOTAL ([…], time 7 day) was 2.2 g, the KIDNEY_L ([…], time 14 day) was 1.3 g and the KIDNEY_R ([…], time 14 day) was 1.3 g. The KIDNEY_TOTAL ([…], time 14 day) was 2.6 g, the KIDNEY_L ([…], time 28 day) was 1.5 g and the KIDNEY_R ([…], time 28 day) was 1.4 g. The KIDNEY_TOTAL ([…], time 28 day) was 2.9 g, the LIVER ([…], time 7 day) was 12.2 g and the LIVER ([…], time 14 day) was 15.3 g. For the same compound, the LIVER ([…], time 28 day) was 16.8 g, the A/G ([…], time 7 day) was 0.9 and the ALP ([…], time 7 day) was 1544.4 IU/L. The ALT ([…], time 7 day) was 44 IU/L, the AST ([…], time 7 day) was 73.2 IU/L and the BUN ([…], time 7 day) was 15.8 mg/dL. For the same compound, the CRE ([…], time 7 day) was 0.2 mg/dL, the Ca ([…], time 7 day) was 10.9 mg/dL and the Cl ([…], time 7 day) was 104.2 meq/L. It also gave a DBIL ([…], time 7 day) of 0.008 mg/dL, a GLC ([…], time 7 day) of 176.4 mg/dL and an IP ([…], time 7 day) of 7.4 mg/dL. It also gave a K ([…], time 7 day) of 3.8 meq/L, an LDH ([…], time 7 day) of 76.8 IU/L and a Na ([…], time 7 day) of 141.8 meq/L. For the same compound, the PL ([…], time 7 day) was 148.4 mg/dL, the RALB ([…], time 7 day) was 2.6 g/dL and the TBIL ([…], time 7 day) was 0.052 mg/dL. It also gave a TC ([…], time 7 day) of 74.6 mg/dL, a TG ([…], time 7 day) of 103.6 mg/dL and a TP ([…], time 7 day) of 5.7 g/dL. The gamma-GTP ([…], time 7 day) was 0.8 IU/L, the A/G ([…], time 14 day) was 0.8 and the ALP ([…], time 14 day) was 1438.4 IU/L. It also gave an ALT ([…], time 14 day) of 36.2 IU/L, an AST ([…], time 14 day) of 62.8 IU/L and a BUN ([…], time 14 day) of 16 mg/dL. It also gave a CRE ([…], time 14 day) of 0.2 mg/dL, a Ca ([…], time 14 day) of 10.9 mg/dL and a Cl ([…], time 14 day) of 104.2 meq/L. It also gave a DBIL ([…], time 14 day) of 0.01 mg/dL, a GLC ([…], time 14 day) of 182 mg/dL and an IP ([…], time 14 day) of 6.7 mg/dL. It also gave a K ([…], time 14 day) of 4.2 meq/L, an LDH ([…], time 14 day) of 119.4 IU/L and a Na ([…], time 14 day) of 141.8 meq/L. The PL ([…], time 14 day) was 153.4 mg/dL, the RALB ([…], time 14 day) was 2.7 g/dL and the TBIL ([…], time 14 day) was 0.052 mg/dL. For the same compound, the TC ([…], time 14 day) was 75.4 mg/dL, the TG ([…], time 14 day) was 146.8 mg/dL and the TP ([…], time 14 day) was 6 g/dL. For the same compound, the gamma-GTP ([…], time 14 day) was 1 IU/L, the A/G ([…], time 28 day) was 0.8 and the ALP ([…], time 28 day) was 1221 IU/L. The ALT ([…], time 28 day) was 36.8 IU/L, the AST ([…], time 28 day) was 66.2 IU/L and the BUN ([…], time 28 day) was 17 mg/dL. It also gave a CRE ([…], time 28 day) of 0.2 mg/dL, a Ca ([…], time 28 day) of 10.8 mg/dL and a Cl ([…], time 28 day) of 104.8 meq/L. It also gave a DBIL ([…], time 28 day) of 0.018 mg/dL, a GLC ([…], time 28 day) of 179.8 mg/dL and an IP ([…], time 28 day) of 6.4 mg/dL. The K ([…], time 28 day) was 4.1 meq/L, the LDH ([…], time 28 day) was 79.6 IU/L and the Na ([…], time 28 day) was 142.4 meq/L. For the same compound, the PL ([…], time 28 day) was 149.2 mg/dL, the RALB ([…], time 28 day) was 2.8 g/dL and the TBIL ([…], time 28 day) was 0.056 mg/dL. It also gave a TC ([…], time 28 day) of 70 mg/dL, a TG ([…], time 28 day) of 156 mg/dL and a TP ([…], time 28 day) of 6.2 g/dL. The gamma-GTP ([…], time 28 day) was 1 IU/L.
